What was measured:
P388 [1] = assay: Activity against P388 lymphocytic leukemia in BDFR-1 mice measured as median survival time (MST) after intraperitoneal administration of 20 mg/kg; assay type: functional, Mus musculus
P388 [2] = assay: Activity against P388 lymphocytic leukemia in BDFR-1 mice measured as percent increase in lifespan (% ILS) relative to controls after intraperitoneal administration of 10 mg/kg; assay type: functional; details: Mus musculus, P388, ip
P388 [3] = assay: Activity against P388 lymphocytic leukemia in BDFR-1 mice measured as median survival time (MST) after intraperitoneal administration of 5 mg/kg; assay type: functional, Mus musculus
P388 [4] = assay: Activity against P388 lymphocytic leukemia in BDFR-1 mice measured as percent increase in lifespan (% ILS) relative to controls after intraperitoneal administration of 20 mg/kg; assay type: functional; details: Mus musculus, P388, ip
HeLa [5] = assay: Effect on [3H]thymidine incorporation by HeLa cells measured as percent incorporation compared to control 3 h after washing at a concentration of 25 ug/mL; assay type: functional, Homo sapiens
P388 [6] = assay: Activity against P388 lymphocytic leukemia in BDFR-1 mice measured as median survival time (MST) after intraperitoneal administration of 80 mg/kg; assay type: functional, Mus musculus
P388 [7] = assay: Activity against P388 lymphocytic leukemia in BDFR-1 mice measured as percent increase in lifespan (% ILS) relative to controls after intraperitoneal administration of 80 mg/kg; assay type: functional; details: Mus musculus, P388, ip
P388 [8] = assay: Activity against P388 lymphocytic leukemia in BDFR-1 mice measured as median survival time (MST) after intraperitoneal administration of 10 mg/kg; assay type: functional, Mus musculus
HeLa [9] = assay: Effect on [3H]thymidine incorporation by HeLa cells measured as percent incorporation compared to control in the presence of drug at a concentration of 25 ug/mL; assay type: functional, Homo sapiens
P388 [10] = assay: Activity against P388 lymphocytic leukemia in BDFR-1 mice measured as percent increase in lifespan (% ILS) relative to controls after intraperitoneal administration of 5 mg/kg; assay type: functional; details: Mus musculus, P388, ip
P388 [11] = assay: Activity against P388 lymphocytic leukemia in BDFR-1 mice measured as median survival time (MST) after intraperitoneal administration of 40 mg/kg; assay type: functional, Mus musculus
HeLa [12] = assay: Effect on [3H]-Thymidine incorporation by HeLa cells measured as percent incorporation compared to control 3 hr after washing at a concentration of 5 ug/mL; assay type: functional, Homo sapiens
HeLa [13] = assay: Effect on [3H]thymidine incorporation by HeLa cells measured as percent incorporation compared to control in the presence of drug at a concentration of 5 ug/mL; assay type: functional, Homo sapiens
P388 [14] = assay: Activity against P388 lymphocytic leukemia in BDFR-1 mice measured as percent increase in lifespan (% ILS) relative to controls after intraperitoneal administration of 40 mg/kg; assay type: functional; details: Mus musculus, P388, ip
P388 [15] = assay: Activity against P388 lymphocytic leukemia in BDFR-1 mice measured as percent increase in lifespan (% ILS) relative to controls after intraperitoneal administration of 80 mg/kg; Toxic; assay type: functional, organism-based; design: dose 80 mg/kg; details: Mus musculus, at 80 mg/kg
P388 [16] = assay: Activity against P388 lymphocytic leukemia in BDFR-1 mice measured as median survival time (MST) after intraperitoneal administration of 2.5 mg/kg; assay type: functional, Mus musculus
P388 [17] = assay: Activity against P388 lymphocytic leukemia in BDFR-1 mice measured as percent increase in lifespan (% ILS) relative to controls after intraperitoneal administration of 2.5 mg/kg; assay type: functional; details: Mus musculus, P388, ip
HeLa [18] = assay: Effect on [3H]-Thymidine incorporation by HeLa cells measured as percent incorporation compared to control 3 hr after washing at a concentration of 10 ug/mL; assay type: functional, Homo sapiens
HeLa [19] = assay: Effect on [3H]-Thymidine incorporation by HeLa cells measured as percent incorporation compared to control in the presence of drug at a concentration of 5 ug/mL; assay type: functional, Homo sapiens
HeLa [20] = assay: Effect on [3H]-Thymidine incorporation by HeLa cells measured as percent incorporation compared to control 3 hr after washing at a concentration of 25 ug/mL; assay type: functional, Homo sapiens
HeLa [21] = assay: Effect on [3H]-Thymidine incorporation by HeLa cells measured as percent incorporation compared to control in the presence of drug at a concentration of 10 ug/mL; assay type: functional, Homo sapiens
HeLa [22] = assay: Effect on [3H]thymidine incorporation by HeLa cells measured as percent incorporation compared to control 3 h after washing at a concentration of 5 ug/mL; assay type: functional, Homo sapiens

SMILES | MST (P388 [1]) | ILS at 10 mg/kg (P388 [2]) [%] | MST (P388 [3]) | ILS at 20 mg/kg (P388 [4]) [%] | Incorporation (HeLa [5]) [%] | MST (P388 [6]) | MST (P388 [8]) | Incorporation (HeLa [9]) [%] | ILS at 5 mg/kg (P388 [10]) [%] | MST (P388 [11]) | Incorporation (HeLa [12]) [%] | Incorporation (HeLa [13]) [%] | ILS at 40 mg/kg (P388 [14]) [%] | also measured
Cc1c2cnccc2c(CO)c2[nH]c3ccccc3c12 | 16.5 | 45 | 13 | 65 | 52 | 18 | 14.5 | 22 | 30 | 16.5 | 88 | 67 | 65 | ILS at 80 mg/kg (P388 [7]): 80%
CNC(=O)OCc1c2ccncc2c(C)c2c1[nH]c1ccccc12 | 15 | 110 | 16 | 50 | 3 | 6 | 21 | 27 | 60 | 10 | 18 | 59 | 0 | ILS (P388 [15]): Toxic; MST (P388 [16]): 18; ILS at 2.5 mg/kg (P388 [17]): 80%
Cc1c2ccncc2c(C)c2c1[nH]c1ccccc12 [ELLIPTECINE] | 13 | 30 | 12 | 30 |  |  | 13 | 8 | 20 | 16 |  |  | 60 | Incorporation (HeLa [18]): 47%; Incorporation (HeLa [19]): 65%; Incorporation (HeLa [20]): 25%; Incorporation (HeLa [21]): 56%; Incorporation (HeLa [22]): 78%

From ChEMBL document CHEMBL1123781, “Synthesis and biological properties of some 6H-pyrido[4,3-b]carbazoles” (1987)
